# Data as given in patent US8669291B2, “Phenyl substituted cycloalkylamines as monoamine reuptake inhibitors” (Sunovion Pharmaceuticals Inc., priority 2007, dated 2014).
# Test system: 6-OHDA lesioned rat
# Experiment: 6-OHDA-lesioned rat Parkinson's disease model, paw placing test
# Type: in vivo
# Description: The effects of compound 4 alone and in combination with L-DOPA were evaluated in the rodent 6-OHDA-lesioned rat Parkinson's disease model. The method, which detects antiparkinson activity (reversal of motor deficits and akinesia), follows that described by Henry et al. (Exp Neurol, 151(2): 334-42, 1998).
# Animal Preparation: Prior to surgery, rats were administered pargyline (5 mg/kg, ip) and desipramine (25 mg/kg ip) to optimize subsequent 6-OHDA availability and increase specificity for toxicity to dopaminergic neurons. Rats were then anesthetized with isoflurane and placed in a stereotaxic frame. After exposure of Bregma, a burr hole was drilled in the skull above the right median forebrain bundle at co-ordinates: 2.8 mm posterior and 2 mm lateral to Bregma (according to the atlas of Paxinos and Watson, 1986). […]
# Paw Placing Test: The paw placing test assesses correct placing of each forepaw in response to a sensory stimulus. […] The test was quantified as the percentage of successful placing responses of the limb contralateral to the side of the 6-OHDA lesion. […]
# Drug Administration: For the monotherapy experiment, the effects of 5 different treatments were assessed: 1) vehicle (sterile water, PO), 2) 3 mg/kg compound 4 (PO), 3) 10 mg/kg compound 4 (PO), 4) 30 mg/kg compound 4 and 5) 6.5 mg/kg (IP) of the positive reference substance, L-DOPA. […]
compound,measurement,setting,value
CNC[C@@H]1CCCC[C@@]1(O)c1ccc(Cl)c(Cl)c1 [Compound 4],paw placement performance,"10 mg/kg, PO in combination with low dose L-DOPA, FIG. 6",significantly increased paw placement performance
same,performance in the paw placement task,"alone, 3-30 mg/kg, PO",little or no improvement in performance
